Patent US7157480B2, “Use of pramipexole to treat amyotrophic lateral sclerosis” (priority 2001, dated 2007)
Like-named read-outs stand apart in the source and are kept apart here.

What was measured:
SH-SY5Y cells = type: cell-based, human
Procedure: (§1) SH-SY5Y human neuroblastoma cells were obtained from the American Tissue Culture Collection (www.atcc.org) and maintained in culture in a replicating state. For caspase assays and cytochrome C release studies they were grown in T75 flasks with DMEM/high glucose containing 10% fetal bovine serum, antibiotic/antimicotic (100 IU/ml of penicillin, 100 μg/ml of streptomycin sulfate, 0.25 μg/ml of amphotericin B) and 50 μg/ml of uridine and 100 μg/ml of pyruvate in a 5% CO2 atmosphere at 37° C. to approximately full confluence (2×10^7 cell/flask). They were then incubated with 5 mM methylpyridinium iodide (MPP+; Sigma; www.sigma-aldrich.com) or 100 μM 25–35 or 35–25 beta amyioid peptides (Bachem; www.bachem.com) for varying times, then harvested. For cell death studies, the cells were plated into 96 well black-bottom plates and grown for 24 hours in DMEM media before being exposed to toxin.
Cell death was estimated by measuring loss of calcein retention with the “Live-Dead” assay (Molecular Probes; www.molecularprobes.com) in cells grown in 96 well plates and incubated with calcein-AM, according to manufacturer's instructions. Calcein signals were assayed in a SpectraMax Gemini adjustable fluorescent plate reader (Molecular Devices). Calcein fluorescence from cells preincubated with methanol was subtracted from all readings as background. Each assay was performed with 8 wells/condition, which were averaged. 3–8 independent experiments were performed to evaluate a broad range of concentrations of S(−) and R(+) PPX in this paradigm.
(§2) R(+) and S(−) PPX (gifts of Pharmacia Corporation) were obtained as their dihydrochloride salts and dissolved directly into culture media. Bongkreckic acid, an antagonist of the ATP binding site on the adenine nucleotide translocator, was provided as a solution in 1M NH4OH. Aristolochic acid (sodium salt), a phospholipase A2 inhibitor, was obtained from Sigma Chemical Co. In the caspase experiments, drugs were added 1 hour before MPP+ or beta amyloid peptide. In the calcein/cell death experiments, drugs were added 4 hours before MPP+.

caspase 3 [1] = type: cell-based, human
Procedure: as §1
(§3) After exposure to MPP+ or beta amyloid peptide, cells were collected in PBS and centrifuged at 450×g for 6 minutes at 4° C. Cell pellets were resuspended in a hypotonic cell lysis buffer [25 mM HEPES, 5 mM MgCl2, 5 mM EDTA, […] and protease inhibitor cocktail (Sigma Chemical)] at a concentration of 2×10^7 cells/100 μl of lysis buffer. Lysates were subjected to four cycles of freezing and thawing. Cell lysates were then centrifuged at 16,000×g for 30 minutes at 4° C. The supernatant fractions were collected, and protein content was measured by Lowry assay (BioRad). 100 μg of protein was used to measure caspase activity in 96 well plates and was assayed in quadruplicate. The activity was measured using the assay buffer and the protocol provided by the manufacturers. (Biomol, caspase 3; Promega, caspases 3 and 9). […] Chromogen absorbance (p-NA) was measured on an OptiMax plate reader or chromogen fluorescence (AMC) on a SpectraMax Gemini plate reader at zero time and after 30 minutes of incubation at 37 degrees to estimate relative caspase activities. Chromogen signal at zero time was subtracted from the readings at 30 minutes.
as §2

[2] = 8 week toxicology study in mice, pathology of major organs; type: in vivo; conditions: drinking water, 8 weeks
Procedure: Toxicology studies have also been conducted and no evidence of adverse effects were detected. In particular, an 8 week toxicology study was performed in the mice given R(+) PPX in their drinking water.

[3] = test system: D2 family dopamine receptors; conditions: cited from earlier work
[4] = relative to S(−) pramipexole; cited from earlier work
caspase 9 = type: cell-based, human
Procedure: as §1, §3, §2

oxidative stress [5] = assay: MPTP-induced forebrain oxidative stress (2,3-DHBA) in mice; type: in vivo, C57BL/6 mice; conditions: MPTP 30 mg/kg s.c.
Procedure: Male C57BL/6 mice received daily R(+) pramipexole dihydrochloride in drinking water for 8 weeks at doses calculated to provide 0, 10, 30 or 100 mg/kg/day. On the day of the study the mice were injected with 30 mg/kg s.c. of the neurotoxin N-methyl-4-phenyl-1,2,3,6-tetrahydropyridine (MPTP) to increase oxidative stress in the brain. One hour later the mice were injected with 100 mg/kg i.p. of sodium salicylate. One hour after salicylate injection the mice were killed and forebrains analyzed for 2,3-dihydroxybenzoic acid (2,3-DHBA) content.

[6] = ALS subjects who completed dose escalation, 3–6 mg per day
Procedure: Following acquisition of these baseline samples, SALS participants began pramipexole therapy. Dosage escalation was performed similar to PD patients with an attempt made to reach 1.5 mg t.i.d.-q.i.d. as the final dose, following a 7 week titration.

oxidative stress [7] = conditions: 12 SALS subjects
Procedure: The present study was conducted in two phases. […] These participants underwent aspirin loading with subsequent 2,3-DHBA analysis. After receiving 1.3 grams of aspirin po, blood was drawn 2, 3, and 4 hours later. Serum was separated, frozen and stored at −80 degrees. Aliquots of serum were subsequently coded and blinded for 2,3-DHBA and salicylate assays.
The subjects received 1.3 grams of aspirin po, and blood was drawn 3 hours later. Following acquisition of these baseline samples, SALS participants began pramipexole therapy. Dosage escalation was performed similar to PD patients with an attempt made to reach 1.5 mg t.i.d.-q.i.d. as the final dose, following a 7 week titration. After each participant was on his/her highest pramipexole dose for three weeks, the aspirin loading study was performed once again. […] Each participant was then offered the opportunity to continue with pramipexole treatment.
Preparation of serum: 0.9 ml of serum at 4° C. was mixed with 0.2 ml of 1 M perchloric acid and centrifuged at 15,000 rpm for 10 minutes in a refrigerated microcentrifuge.
Assay for 2,3-DHBA: 20 uL of supernatant were injected in duplicate onto a C18 “Catecholamine” Adsorbosphere column (Alltech) perfused at 0.6 ml/min with buffer consisting of 125 ml/L acetonitrile, 1.5 gn/L of sodium heptane sulfonate, 3 ml/L triethylamine, 100 mg/L of Na2 EDTA with final pH adjusted to 2.8 with phosphoric acid. Detection utilized a CouloChem II flow-through electrochemical detector (ESA, with the following settings: guard cell=+600 mV; E1=−100 mV; E2=+400 mV). 2,3-DHBA eluted at 10–10.5 minutes under these conditions.
Assay for salicylate: 50 uL of supernatant were injected in duplicate onto a C8 Kromosil HPLC column (Alltech) perfused at 0.8–1.0 ml/min with 70% methanol/30% water/0.5% trifluoroacetic acid. Salicylate eluted at 6–7 minutes under these conditions and was detected by ultraviolet absorption at 315 nm.

caspase 3 [8] = conditions: SH-SY5Y
Procedure: as §1, with “For cell death studies, the cells were plated into 96 well black-bottom plates and grown for 24 hours in DMEM media before being exposed to toxin.” left out
After exposure to MPP+ or beta amyloid peptide, cells were collected in PBS and centrifuged at 450×g for 6 minutes at 4° C. […] The supernatant fractions were collected, and protein content was measured by Lowry assay (BioRad). […] The activity was measured using the assay buffer and the protocol provided by the manufacturers. […] Chromogen absorbance (p-NA) was measured on an OptiMax plate reader or chromogen fluorescence (AMC) on a SpectraMax Gemini plate reader at zero time and after 30 minutes of incubation at 37 degrees to estimate relative caspase activities. Chromogen signal at zero time was subtracted from the readings at 30 minutes. […]

## C[n+]1ccc(-c2ccccc2)cc1.[I-] [MPP+, methylpyridinium iodide]
SH-SY5Y cells; SH-SY5Y, 5 mM MPP+ alone, 24 hours
  reduction of calcein uptake: about 60%
Caspase 3 [1]; SH-SY5Y, 5 mM MPP+, by 24 hours
  increase of caspase 3 activity: about 2 fold

## CCCN[C@@H]1CCc2nc(N)sc2C1.Cl.Cl [R(+) PPX, R(+)-2-amino-4,5,6,7-tetrahydro-6-propylaminobenzathiazole dihydrochloride]
[2]
  pathological examination of all major organs: no lesions were found
[3]
  dopamine agonist activity: very little dopamine agonist activity
[4]
  potency to produce the side effects that result from the use of S(−) pramipexole: ≤ 1%
SH-SY5Y cells; 3 nM PPX, 5 mM MPP+ 24 hours, p=0.035
  calcein retention in the presence of MPP+, enantiomer comparison: greater calcein retention than S(−) PPX
SH-SY5Y cells; SH-SY5Y, 5 mM MPP+ 24 hours, 30 nM PPX added 4 hours before, effect retained through 30 μM
  calcein uptake after MPP+: substantially restored
Caspase 3 [1]; SH-SY5Y, 5 mM MPP+ 24 hours, 1 mM PPX added 1 hour before, p<0.05 vs MPP+
  MPP+-induced caspase 3 activation: suppressed
Caspase 9; SH-SY5Y, 5 mM MPP+ 8 hr, 1 mM PPX
  MPP+-induced increases in caspase 9 activity: blocked
Oxidative stress [5]; 30 mg/kg/day in drinking water for 8 weeks
  forebrain oxidative stress produced by MPTP (2,3-DHBA): significantly reduced
Oxidative stress [5]; 100 mg/kg/day in drinking water for 8 weeks
  forebrain oxidative stress produced by MPTP (2,3-DHBA): significantly reduced

## CCCN[C@H]1CCc2nc(N)sc2C1 [S(−) PPX, S(−)-2-amino-4,5,6,7-tetrahydro-6-propylaminobenzathiazole]
[6]
  tolerability: well tolerated
Oxidative stress [7]; 3–6 mg per day oral, pre vs post treatment, 3 hours after 1.3 grams aspirin, p=0.015
  mean reduction of serum 2,3-DHBA concentration: about 45%
Oxidative stress [7]; 3–6 mg per day oral, pre vs post treatment, p=0.010
  average reduction of serum 2,3-DHBA normalized to salicylate levels: 59%
Oxidative stress [7]; without exception
  individual serum levels of 2,3-DHBA pre vs post treatment: reduced
Caspase 3 [8]; 100 μM beta amyloid 25–35
  reduction of the increases in caspase 3 activity following BA 25–35 peptide: about 70%
Caspase 3 [8]; drug alone without toxin
  effect on caspase 3 activity by itself: no suppressive effect
[3]
  dopamine agonist activity: potent agonist
SH-SY5Y cells
  calcein retention in the presence of MPP+, enantiomer comparison: greater calcein retention than R(+) PPX
  calcein uptake after MPP+: substantially restored
Caspase 3 [1]
  MPP+-induced caspase 3 activation: suppressed
Caspase 9
  MPP+-induced increases in caspase 9 activity: blocked

## COc1cccc2c1cc([N+](=O)[O-])c1c(C(=O)O)cc3c(c12)OCO3 [aristolochic acid, Aristolochic acid]
Caspase 3 [1]; SH-SY5Y, 5 mM MPP+ 24 hours, 25 μM aristolochic acid, p<0.05 vs MPP+
  MPP+-induced caspase 3 activation: prevented increases
Caspase 9; SH-SY5Y, 5 mM MPP+ 8 hr, 25 μM aristolochic acid
  MPP+-induced increases in caspase 9 activity: blocked

## CO[C@H](C/C=C\C=C\CC/C=C/C[C@H](C)/C=C/C(=C\C(=O)O)CC(=O)O)/C(C)=C\C=C(/C)C(=O)O [bongkreckic acid, Bongkreckic acid]
Caspase 3 [1]; SH-SY5Y, 5 mM MPP+ 24 hours, 250 μM bongkreckic acid, p<0.05 vs MPP+
  MPP+-induced caspase 3 activation: blocked
Caspase 9; SH-SY5Y, 5 mM MPP+ 8 hr, 250 μM bongkreckic acid
  MPP+-induced increases in caspase 9 activity: blocked
